{"source": "patent US10913781B2", "about": "“Pepducin design and use” (Tufts Medical Center, Inc., priority 2011, dated 2021)", "biological_target": "T1, PAR1 (Homo sapiens, UniProt P25116)", "T1 sequence (P25116 22-425)": "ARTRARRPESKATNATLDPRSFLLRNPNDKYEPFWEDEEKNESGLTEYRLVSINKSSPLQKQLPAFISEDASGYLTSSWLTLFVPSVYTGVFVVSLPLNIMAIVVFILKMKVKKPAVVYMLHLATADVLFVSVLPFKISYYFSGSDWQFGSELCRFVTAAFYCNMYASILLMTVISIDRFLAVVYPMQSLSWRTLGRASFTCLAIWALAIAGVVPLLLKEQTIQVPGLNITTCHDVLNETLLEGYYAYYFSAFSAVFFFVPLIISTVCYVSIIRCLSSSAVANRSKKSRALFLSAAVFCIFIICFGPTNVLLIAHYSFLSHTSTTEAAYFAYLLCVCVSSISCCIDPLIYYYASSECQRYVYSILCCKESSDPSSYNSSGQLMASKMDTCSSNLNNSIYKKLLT", "experiment": "[3H]-InsP formation in COS7 cells transfected with PAR1", "format": "cell-based", "set-up": "expressed in transfected cells; host or cells: COS7", "conditions": "1 μM TFLLRN, 30 min", "description": "(A) PAR2 antagonist pepducins P2pal-18S and P2pal-14GQ inhibit calcium flux induced by PAR2 (SLIGRL) (SEQ ID NO:4) but not PAR1 (TFLLRN) (SEQ ID NO:2) agonists. SW620 cells were stably transfected with PAR1 and pretreated for 1 min with various concentrations of P2pal-18S or P2pal-14GQ and then stimulated with 30 μM PAR agonist. […] Cells were stimulated with 1 μM TFLLRN (SEQ ID NO:2), 1 μM SLIGRL (SEQ ID NO:4) or 100 μM AYPGKF (SEQ ID NO:5) and [^3H]-InsP formation measured over 30 min. (C) SW620 cells were treated with the indicated concentrations of P2pal-18S or P2pal-14GQ in the upper well of an 8-μm pore Boyden chamber and allowed to migrate for 18 h towards 10 μM of the PAR2 specific agonist SLIGRL in the lower chamber. The migration to RPMI/0.1% FBS represents random migration. (D) Migration of HEK cells transiently transfected with PAR2 (wild-type, WT), or PAR2-R36A/PAR2-RQ toward chemotactic gradients of 30 nM trypsin in the absence or presence of the indicated concentration of P2pal-18S for 18 h in a transwell apparatus ([…]). Data (n=2-4) are mean±SEM. *, P<0.05 and **, P<0.005."}
{"smiles": "CCCCCCCCCCCCCCCC(=O)N[C@@H](CCCNC(=N)N)C(=O)N[C@@H](CO)C(=O)N[C@@H](CO)C(=O)N[C@@H](C)C(=O)N[C@@H](CCSC)C(=O)N[C@@H](CC(=O)O)C(=O)N[C@@H](CCC(=O)O)C(=O)N[C@@H](CC(N)=O)C(=O)N[C@@H](CO)C(=O)N[C@@H](CCC(=O)O)C(=O)N[C@@H](CCCCN)C(=O)N[C@@H](CCCCN)C(=O)N[C@@H](CCCNC(=N)N)C(=O)N[C@@H](CCCCN)C(=O)N[C@@H](CO)C(=O)N[C@@H](C)C(=O)N[C@H](C(=O)N[C@@H](CCCCN)C(N)=O)[C@@H](C)CC", "note": "[P2pal-18S]", "values": [{"measurement": "Inhibition of InsP signaling from PAR1", "result": "do not inhibit"}]}
